Assay results as given in ChEMBL document CHEMBL3860026, “Depsidones from Lichens as Natural Product Inhibitors of M-Phase Phosphoprotein 1, a Human Kinesin Required for Cytokinesis” (J Nat Prod, 2016).
In brackets after ≈: the same amount, converted by molar mass. Each block holds one molecule with its values, some of them ahead of it. Activity calls are given as the source filed them. The calls are words filed in the database; no cut-off is given here.

Tests used:
[1] = Drug level in human liver microsomes treated with norlobaridone at 3 uM in presence of NADPH after 5 to 45 mins by LC-MS/MS method; format: ADME
[2] = Solubility of the compound in phosphate buffered saline at pH 2 after 2 hrs by turbidimetric method; format: physicochemical
[3] = target: T1, Kinesin-like protein KIF20B (Homo sapiens, UniProt Q96Q89); test: Inhibition of microtubule-stimulated ATPase activity of N-terminal His6-tagged/SUMO-fused human MPP1 motor domain (57 to 491 residues) expressed in Escherichia coli BL21 CodonPlus by pyruvate kinase/lactate dehydrogenase-linked assay
T1 sequence (Q96Q89 whole entry, the tested form may be a part): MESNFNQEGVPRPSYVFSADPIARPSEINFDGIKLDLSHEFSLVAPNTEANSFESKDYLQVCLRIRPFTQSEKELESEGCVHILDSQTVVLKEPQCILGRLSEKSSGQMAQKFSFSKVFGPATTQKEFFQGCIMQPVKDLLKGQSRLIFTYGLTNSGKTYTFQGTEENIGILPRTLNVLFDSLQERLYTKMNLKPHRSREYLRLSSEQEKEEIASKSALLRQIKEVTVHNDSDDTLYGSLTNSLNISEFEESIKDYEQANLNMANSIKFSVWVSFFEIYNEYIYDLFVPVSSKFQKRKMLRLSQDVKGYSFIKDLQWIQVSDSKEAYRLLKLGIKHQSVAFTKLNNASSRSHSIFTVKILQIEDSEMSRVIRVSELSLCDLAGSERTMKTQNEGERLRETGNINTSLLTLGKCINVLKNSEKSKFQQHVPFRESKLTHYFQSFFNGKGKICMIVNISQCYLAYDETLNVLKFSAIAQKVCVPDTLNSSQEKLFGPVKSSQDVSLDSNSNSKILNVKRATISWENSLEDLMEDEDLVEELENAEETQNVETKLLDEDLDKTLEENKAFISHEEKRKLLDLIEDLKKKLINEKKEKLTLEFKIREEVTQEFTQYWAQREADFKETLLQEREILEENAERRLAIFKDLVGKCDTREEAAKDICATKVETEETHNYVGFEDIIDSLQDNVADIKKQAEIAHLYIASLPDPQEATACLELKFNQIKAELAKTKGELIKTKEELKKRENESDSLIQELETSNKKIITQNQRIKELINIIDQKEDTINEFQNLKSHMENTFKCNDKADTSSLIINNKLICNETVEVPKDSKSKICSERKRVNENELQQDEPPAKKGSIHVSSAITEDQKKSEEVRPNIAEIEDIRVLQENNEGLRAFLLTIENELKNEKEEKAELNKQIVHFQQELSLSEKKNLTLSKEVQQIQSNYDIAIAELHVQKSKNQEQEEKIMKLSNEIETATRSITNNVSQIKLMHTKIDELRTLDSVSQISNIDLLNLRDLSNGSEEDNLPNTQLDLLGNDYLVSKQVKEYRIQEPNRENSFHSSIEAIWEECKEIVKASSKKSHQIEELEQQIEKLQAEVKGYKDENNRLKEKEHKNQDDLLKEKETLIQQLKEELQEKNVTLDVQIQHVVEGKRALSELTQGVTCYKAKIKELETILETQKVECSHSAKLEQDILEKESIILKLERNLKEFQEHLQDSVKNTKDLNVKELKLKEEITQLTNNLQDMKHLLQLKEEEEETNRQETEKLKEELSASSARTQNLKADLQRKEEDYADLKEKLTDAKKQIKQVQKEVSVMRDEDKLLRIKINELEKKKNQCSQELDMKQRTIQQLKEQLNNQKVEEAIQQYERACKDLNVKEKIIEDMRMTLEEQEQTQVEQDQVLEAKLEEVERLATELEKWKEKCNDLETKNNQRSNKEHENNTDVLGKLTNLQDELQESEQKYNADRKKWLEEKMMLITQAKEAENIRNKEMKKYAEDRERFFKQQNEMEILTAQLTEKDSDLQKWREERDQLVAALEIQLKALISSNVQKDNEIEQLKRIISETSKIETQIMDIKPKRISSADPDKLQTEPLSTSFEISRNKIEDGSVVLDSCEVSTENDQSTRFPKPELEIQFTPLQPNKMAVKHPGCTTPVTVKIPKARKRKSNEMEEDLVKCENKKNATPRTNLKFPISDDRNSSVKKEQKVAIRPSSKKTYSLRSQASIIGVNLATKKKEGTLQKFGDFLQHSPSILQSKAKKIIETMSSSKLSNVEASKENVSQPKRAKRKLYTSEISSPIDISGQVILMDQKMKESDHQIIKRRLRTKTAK

[4] = Cytotoxicity against human HCT116 cells assessed as growth inhibition after 72 hrs by Alamar Blue assay; format: functional, cell-based; conditions: HCT-116, 72 h
[5] = Drug metabolism in human liver microsomes assessed as methyl 2,4-dihydroxy-6-pentanoylbenzoate formation at 3 uM in presence of NADPH after 5 to 45 mins by LC-MS/MS method; format: ADME
[6] = Half life in mouse liver microsomes at 3 uM by LC-MS/MS method; format: ADME
[7] = Efflux ratio of apparent permeability across basolateral to apical over apical to basolateral side in human Caco2 cells at 10 uM after 2 hrs by LC-MS/MS method; format: ADME, cell-based; conditions: Caco-2
[8] = Drug metabolism in human liver microsomes assessed as 3,8-dihydroxy-6-(5-hydroxypentyl)-1-pentanoyl-11H-dibenzo[b,e][1,4]dioxepin-11-one formation at 3 uM in presence of NADPH after 5 to 45 mins by LC-MS/MS method; format: ADME
[9] = Cytotoxicity against human BxPC3 cells assessed as growth inhibition after 72 hrs by Alamar Blue assay; format: functional, cell-based; conditions: BXPC-3, 72 h
[10] = target: T1, Kinesin-like protein KIF20B; test: Inhibition of basal ATPase activity of N-terminal His6-tagged/SUMO-fused human MPP1 motor domain (57 to 491 residues) expressed in Escherichia coli BL21 CodonPlus in presence of 0.1% Tween-20 by pyruvate kinase/lactate dehydrogenase-linked assay
[11] = Cytotoxicity against human J82 cells assessed as growth inhibition after 72 hrs by Alamar Blue assay; format: functional, cell-based; conditions: J82, 72 h
[12] = Solubility of the compound in phosphate buffered saline at pH 6 after 2 hrs by turbidimetric method; format: physicochemical
[13] = Apparent passive permeability of the compound at 10 uM after 5 hrs by PAMPA; format: ADME; conditions: PAMPA
[14] = n-octanol-buffer distribution co-efficient, log D of the compound at pH 7.4 by shake flask method; format: physicochemical
[15] = Intrinsic clearance in mouse liver microsomes assessed per mg of protein at 3 uM after 5 to 60 mins by LC-MS/MS method; format: ADME; conditions: read-out: CLH
[16] = Solubility of the compound in phosphate buffered saline at pH 7.4 after 2 hrs by turbidimetric method; format: physicochemical
[17] = target: T1, Kinesin-like protein KIF20B; test: Inhibition of basal ATPase activity of N-terminal His6-tagged/SUMO-fused human MPP1 motor domain (57 to 491 residues) expressed in Escherichia coli BL21 CodonPlus by pyruvate kinase/lactate dehydrogenase-linked assay
[18] = Passive permeability of the compound assessed as compound recovery at 10 uM after 5 hrs by PAMPA; format: ADME; conditions: read-out: Drug recovery
[19] = Drug metabolism in human liver microsomes assessed as 2-(2,4-dihydroxy-6-pentylphenoxy)-4-hydroxy-6-pentanoylbenzoic acid formation at 3 uM in presence of NADPH after 5 to 45 mins by LC-MS/MS method; format: ADME
[20] = Intrinsic clearance in human liver microsomes assessed per mg of protein at 3 uM after 5 to 60 mins by LC-MS/MS method; format: ADME; conditions: read-out: CLH
[21] = Cytotoxicity against human K562 cells assessed as growth inhibition after 72 hrs by Alamar Blue assay; format: functional, cell-based; conditions: K562, 72 h
[22] = target: T1, Kinesin-like protein KIF20B; test: Inhibition of basal ATPase activity of N-terminal His6-tagged/SUMO-fused human MPP1 motor domain (2 to 477 residues) expressed in Escherichia coli BL21 CodonPlus by pyruvate kinase/lactate dehydrogenase-linked assay
[23] = Half life in human liver microsomes at 3 uM by LC-MS/MS method; format: ADME
[24] = Cytotoxicity against human UM-UC-3 cells assessed as growth inhibition after 72 hrs by Alamar Blue assay; format: functional, cell-based; conditions: UMUC3, 72 h
[25] = target: T1, Kinesin-like protein KIF20B; test: Inhibition of microtubule-stimulated ATPase activity of N-terminal His6-tagged/SUMO-fused human MPP1 motor domain (2 to 477 residues) expressed in Escherichia coli BL21 CodonPlus by pyruvate kinase/lactate dehydrogenase-linked assay
[26] = target: T1, Kinesin-like protein KIF20B; test: Inhibition of basal ATPase activity of N-terminal His6-tagged/SUMO-fused human MPP1 motor domain (2 to 477 residues) expressed in Escherichia coli BL21 CodonPlus in presence of 0.1% Tween-20 by pyruvate kinase/lactate dehydrogenase-linked assay

Compound: CCCCC(=O)c1cc(O)cc(O)c1C(=O)OC
Drug metabolism [1]: Metabolite_Detected

Compound: Cc1cc(O)cc2c1C(=O)Oc1cc3c(c(O)c1O2)C(=O)OC3 [VARIOLARIC ACID]
EC50 [4]: > 100 µM
EC50 [11]: > 50 µM
EC50 [21]: > 100 µM
EC50 [24]: > 100 µM

Compound: CCCCCc1c2c(cc(O)c1C(=O)O)OC(=O)c1c(cc(OC)cc1C(=O)CCCC)O2 [LOBARIC ACID]
EC50 [4]: 0.8 µM
EC50 [9]: 1.6 µM
EC50 [11]: 3.6 µM
EC50 [21]: 1.4 µM
EC50 [24]: 3.7 µM

The next lines start with results.

Drug metabolism [1]: Metabolite_Detected
Compound: CCCCCc1cc(O)cc(O)c1Oc1cc(O)cc(C(=O)CCCC)c1C(=O)O

solubility kinetic at 2 h [2]: 6.5 µM (≈ 2.59 µg/mL)
IC50 [3]: 24.4 µM
Imax [3]: 90%
Drug metabolism [5]: Metabolite_Detected
half-life at 3 µM [6]: 3.1 min
efflux ratio at 2 h, 10 µM [7]: 0.51
Drug metabolism [8]: Metabolite_Detected
inhibition [10]: Active
solubility kinetic at 2 h [12]: 3.75 µM (≈ 1.49 µg/mL)
Papp at 5 h, 10 µM [13]: 32.4 ×10⁻⁶ cm/s
logD [14]: 3.5
microsomal CLint at 3 µM [15]: 452 µL/min/mg
solubility kinetic at 2 h [16]: 37.5 µM (≈ 14.9 µg/mL)
IC50 [17]: 18.7 µM
Imax [17]: 75%
recovery at 5 h, 10 µM [18]: 95.1%
Drug metabolism [19]: Metabolite_Detected
microsomal CLint at 3 µM [20]: 393 µL/min/mg
IC50 [22]: 10.8 µM
Imax [22]: 80%
half-life at 3 µM [23]: 3.5 min
IC50 [25]: 7.6 µM
Imax [25]: 90%
inhibition [26]: Active
Compound: CCCCCc1cc(O)cc2c1Oc1cc(O)cc(C(=O)CCCC)c1C(=O)O2
EC50 [4]: 42.9 µM
EC50 [9]: 33.1 µM
EC50 [11]: 48.3 µM
EC50 [21]: 43.7 µM
EC50 [24]: 30.5 µM

Drug metabolism [1]: Metabolite_Detected
Compound: CCCCC(=O)c1cc(O)cc2c1C(=O)Oc1cc(O)cc(CCCCCO)c1O2
